Assay results published in BindingDB's records for doi:10.1021/jm900735p (Pharmacy School of Wenzhou Medical College, 2009).

Molecular target: Xanthine dehydrogenase/oxidase (Rattus norvegicus, UniProt P22985)
Assay: Inhibition of rat liver xanthine oxidase after 2 hrs by spectrophotometry

Chain of Xanthine dehydrogenase/oxidase (P22985 whole entry): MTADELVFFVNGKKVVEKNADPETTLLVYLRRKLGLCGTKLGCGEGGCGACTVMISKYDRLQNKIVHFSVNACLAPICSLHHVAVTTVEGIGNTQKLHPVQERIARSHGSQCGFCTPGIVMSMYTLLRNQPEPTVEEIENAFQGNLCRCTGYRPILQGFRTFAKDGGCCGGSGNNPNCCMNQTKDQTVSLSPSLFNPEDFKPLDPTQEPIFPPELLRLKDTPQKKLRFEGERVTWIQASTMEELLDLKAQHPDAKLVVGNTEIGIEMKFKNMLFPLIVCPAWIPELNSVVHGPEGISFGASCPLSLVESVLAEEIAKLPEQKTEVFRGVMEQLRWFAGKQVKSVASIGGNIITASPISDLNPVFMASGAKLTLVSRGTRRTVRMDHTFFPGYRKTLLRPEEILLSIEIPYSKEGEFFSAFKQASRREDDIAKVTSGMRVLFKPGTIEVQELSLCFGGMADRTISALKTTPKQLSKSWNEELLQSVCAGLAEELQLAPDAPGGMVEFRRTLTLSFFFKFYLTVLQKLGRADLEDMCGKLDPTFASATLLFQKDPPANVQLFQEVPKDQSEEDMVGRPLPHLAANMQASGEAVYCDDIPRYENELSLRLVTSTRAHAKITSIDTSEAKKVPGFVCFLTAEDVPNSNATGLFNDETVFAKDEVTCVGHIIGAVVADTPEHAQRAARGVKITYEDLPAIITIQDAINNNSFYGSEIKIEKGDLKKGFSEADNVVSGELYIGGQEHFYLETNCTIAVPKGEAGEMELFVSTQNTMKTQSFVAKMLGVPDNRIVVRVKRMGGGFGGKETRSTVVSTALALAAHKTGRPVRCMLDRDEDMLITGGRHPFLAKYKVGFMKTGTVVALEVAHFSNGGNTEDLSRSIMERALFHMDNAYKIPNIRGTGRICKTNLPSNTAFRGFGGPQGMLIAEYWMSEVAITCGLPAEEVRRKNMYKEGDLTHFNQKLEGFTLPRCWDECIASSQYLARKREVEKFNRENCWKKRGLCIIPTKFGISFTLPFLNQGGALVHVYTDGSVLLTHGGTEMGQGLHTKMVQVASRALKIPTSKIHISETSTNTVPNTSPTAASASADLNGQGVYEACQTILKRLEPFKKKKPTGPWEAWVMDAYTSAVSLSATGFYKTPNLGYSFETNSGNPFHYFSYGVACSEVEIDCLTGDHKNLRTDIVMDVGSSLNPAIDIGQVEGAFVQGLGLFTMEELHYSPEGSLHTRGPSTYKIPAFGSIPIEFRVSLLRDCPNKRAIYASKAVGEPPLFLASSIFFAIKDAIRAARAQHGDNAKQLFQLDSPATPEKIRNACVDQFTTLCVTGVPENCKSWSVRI

SMILES: COc1cc(C2Oc3cc(-c4oc5cc(O)cc(=O)c-5c(O)c4O)ccc3OC2CO)ccc1O (configuration not stated) [Dehydrosilylbin]
- IC50: 80.3 µM

SMILES: COc1cc([C@@H]2Oc3cc(C4Oc5cc(O)cc(O)c5C(O)C4=O)ccc3O[C@H]2CO)ccc1O (some centres not stated) [SMR000857154]
- IC50: 80.3 µM
